Test results: US20100016401A1, “3-AZA-BICYCLO[3.1.0]HEXANE DERIVATIVES” (Actelion Phamaceuticals Ltd., priority 2006, published 2010)

Experiments:
[1] = biological target: T1, human orexin-1 receptor (Homo sapiens, UniProt O43613); experiment: Intracellular calcium measurements (FLIPR), orexin receptor antagonistic activity, OX1; format: cell-based; conditions: CHO cells expressing human orexin-1 receptor, 10 nM orexin-A as agonist
T1 construct: expressed in transfected cells; host or cells: CHO (Chinese hamster ovary) cells, grown under G418 selection
T1 sequence (O43613 1-425): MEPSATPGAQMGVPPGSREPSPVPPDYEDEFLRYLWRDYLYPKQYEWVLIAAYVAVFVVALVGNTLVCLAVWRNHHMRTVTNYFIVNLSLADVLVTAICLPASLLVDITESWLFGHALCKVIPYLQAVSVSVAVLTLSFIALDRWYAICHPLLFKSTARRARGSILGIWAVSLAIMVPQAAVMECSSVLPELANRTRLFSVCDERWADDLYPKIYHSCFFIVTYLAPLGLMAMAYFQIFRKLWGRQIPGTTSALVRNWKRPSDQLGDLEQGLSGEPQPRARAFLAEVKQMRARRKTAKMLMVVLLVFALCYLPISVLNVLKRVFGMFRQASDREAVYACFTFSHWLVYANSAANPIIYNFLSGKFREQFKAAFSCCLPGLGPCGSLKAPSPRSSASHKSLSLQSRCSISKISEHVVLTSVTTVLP
Method: (§1) The orexin receptor antagonistic activity of the compounds of formula (I) is determined in accordance with the following experimental method.
(§2) Intracellular Calcium Measurements:
(§3) Chinese hamster ovary (CHO) cells expressing the human orexin-1 receptor and the human orexin-2 receptor, respectively, are grown in culture medium (Ham F-12 with L-Glutamine) containing 300 μg/ml G418, 100 U/ml penicillin, 100 μg/ml streptomycin and 10% inactivated fetal calf serum (FCS). The cells are seeded at 80,000 cells/well into 96-well black clear bottom sterile plates (Costar) which have been precoated with 1% gelatine in Hanks' Balanced Salt Solution (HBSS). All reagents are from Gibco BRL. The seeded plates are incubated overnight at 37° C. in 5% CO2.
(§4) Human orexin-A as an agonist is prepared as 1 mM stock solution in MeOH: water (1:1), diluted in HBSS containing 0.1% bovine serum albumin (BSA) and 2 mM HEPES for use in the assay at a final concentration of 10 nM.
(§5) Antagonists are prepared as 10 mM stock solution in DMSO, then diluted in 96-well plates, first in DMSO, then in HBSS containing 0.1% bovine serum albumin (BSA) and 2 mM HEPES.
(§6) On the day of the assay, 100 μl of loading medium (HBSS containing 1% FCS, 2 mM HEPES, 5 mM probenecid (Sigma) and 3 μM of the fluorescent calcium indicator fluo-3 AM (1 mM stock solution in DMSO with 10% pluronic acid) (Molecular Probes) is added to each well.
(§7) The 96-well plates are incubated for 60 min at 37° C. in 5% CO2. The loading solution is then aspirated and cells are washed 3 times with 200 μl HBSS containing 2.5 mM probenecid, 0.1% BSA, 2 mM HEPES. 100 μl of that same buffer is left in each well.
(§8) Within the Fluorescent Imaging Plate Reader (FLIPR, Molecular Devices), antagonists are added to the plate in a volume of 50 μl, incubated for 20 min and finally 100 μl of agonist is added. Fluorescence is measured for each well at 1 second intervals, and the height of each fluorescence peak is compared to the height of the fluorescence peak induced by 10 nM orexin-A with buffer in place of antagonist.

[2] = biological target: T2, human orexin-2 receptor (Homo sapiens, UniProt O43614); experiment: Intracellular calcium measurements (FLIPR), orexin receptor antagonistic activity, OX2; format: cell-based; conditions: CHO cells expressing human orexin-2 receptor, 10 nM orexin-A as agonist
T2 construct: expressed in transfected cells; host or cells: CHO (Chinese hamster ovary) cells, grown under G418 selection
T2 sequence (O43614 1-444): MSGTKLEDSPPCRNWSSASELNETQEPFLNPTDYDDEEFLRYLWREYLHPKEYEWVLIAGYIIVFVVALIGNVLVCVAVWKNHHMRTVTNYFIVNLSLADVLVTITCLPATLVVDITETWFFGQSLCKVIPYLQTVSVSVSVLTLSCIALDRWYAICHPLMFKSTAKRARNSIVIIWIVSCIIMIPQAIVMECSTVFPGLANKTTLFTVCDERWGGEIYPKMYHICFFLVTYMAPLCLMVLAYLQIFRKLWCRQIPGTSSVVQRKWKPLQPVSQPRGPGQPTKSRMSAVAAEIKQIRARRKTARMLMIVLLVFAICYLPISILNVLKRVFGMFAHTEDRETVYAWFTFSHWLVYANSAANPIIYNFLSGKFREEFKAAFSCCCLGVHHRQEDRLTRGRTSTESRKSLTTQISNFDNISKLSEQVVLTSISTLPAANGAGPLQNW
Method: as §1, §2, §3, §4, §5, §6, §7, §8

Structure (SMILES): Cc1cccc(-c2sc(CCCO)nc2C(=O)N2C[C@H]3C[C@H]3[C@H]2CNC(=O)c2c(C)nc3sccn23)c1 (relative stereo) [Example 389, 6-Methyl-imidazo[2,1-b]thiazole-5-carboxylic acid {(1R*,2S*,5S*)-3-[2-(3-hydroxy-propyl)-5-m-tolyl-thiazole4-carbonyl]-3-aza-bicyclo[3.1.0]hex-2-ylmethyl}-amide]
- IC50 [1]: 0.019 µM
- IC50 [2]: 0.017 µM

Structure (SMILES): Cc1ccc(C(=O)N2C[C@H]3C[C@H]3[C@H]2CNC(=O)c2cccc3c2OCC3)c(-c2cccc(F)c2)c1 [Compound 325]
- IC50 [1]: 0.346 µM
- IC50 [2]: 0.04 µM

Structure (SMILES): Cc1ccc(C(=O)N2C[C@H]3C[C@H]3[C@H]2CNC(=O)c2cccc3c2OCCO3)c(-c2ccc3c(c2)OCCO3)c1 [Compound 350]
- IC50 [1]: 0.11 µM
- IC50 [2]: 0.194 µM

Structure (SMILES): Cc1csc(-c2c(C)cccc2C(=O)N2C[C@H]3C[C@H]3[C@H]2CNC(=O)c2cccc3c2OCCO3)c1 [Compound 376]
- IC50 [1]: 0.194 µM
- IC50 [2]: 0.158 µM
